Twelve molecules from ChEMBL document CHEMBL1144745, “Alkyne-quinuclidine derivatives as potent and selective muscarinic antagonists for the treatment of COPD” (Bioorg Med Chem Lett, 2008) can be followed below.

Calls of active or inactive are those of the source. The rule behind the calls is not given here.

The term Ki denotes a dissociation constant, usually derived from enzyme kinetics or from competition with a known ligand.

Assay [1] is filed under the species Cavia porcellus. The assay can be described thus: (§1) Antagonist activity at muscarinic M2 receptor in carbachol-stimulated guinea pig left atrium. In kind it is functional, tissue-based. Conditions: Cardiac atrium.
The target of assay [2] is T1, Muscarinic acetylcholine receptor M2 (Homo sapiens, UniProt P08172).
T1 sequence (P08172 whole entry): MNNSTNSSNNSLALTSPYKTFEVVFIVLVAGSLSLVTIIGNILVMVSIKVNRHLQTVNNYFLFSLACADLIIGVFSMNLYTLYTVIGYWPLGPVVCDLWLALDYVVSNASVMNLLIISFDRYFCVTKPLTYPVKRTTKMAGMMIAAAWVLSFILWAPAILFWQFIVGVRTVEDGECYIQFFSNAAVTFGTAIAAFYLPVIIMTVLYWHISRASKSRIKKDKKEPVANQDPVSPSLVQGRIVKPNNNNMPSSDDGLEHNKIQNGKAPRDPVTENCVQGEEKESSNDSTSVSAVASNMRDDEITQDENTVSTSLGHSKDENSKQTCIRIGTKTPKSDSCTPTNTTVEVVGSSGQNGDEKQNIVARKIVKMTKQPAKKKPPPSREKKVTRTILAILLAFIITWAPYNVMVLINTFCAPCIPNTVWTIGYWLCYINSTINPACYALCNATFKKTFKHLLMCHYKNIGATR
The assay can be described thus: Displacement of [3H]N-methylscopolamine from human recombinant muscarinic M2 receptor expressed in CHO cells. It counts as cell-based. Background: In a radioligand displacement assay an active substance lowers the binding of a labelled ligand.

Assay [3] has as its target Muscarinic acetylcholine receptor M3 (Homo sapiens, UniProt P20309). The assay can be described thus: Displacement of [3H]N-methylscopolamine from human recombinant muscarinic M3 receptor expressed in CHO cells. It counts as cell-based.
A short description of assay [4]: as §1. Conditions: Cavia porcellus, Cardiac atrium; read-out: pA2 (converted). It counts as functional, tissue-based.
The target of assay [5] is Muscarinic acetylcholine receptor M3 (Cavia porcellus, UniProt Q8VH26). The assay can be described thus: Antagonist activity at muscarinic M3 receptor in carbachol-stimulated guinea pig trachea. In kind it is functional. The note with it: read-out: pA2 (converted).
For assay [6], the target named is Muscarinic acetylcholine receptor M3 (Cavia porcellus) (UniProt Q8VH26). The assay can be described thus: Reversible inhibition of muscarinic M3 receptor in electrically-stimulated guinea pig trachea assessed as recovery of maximal effect at >280 min. It counts as tissue-based. Details: scale not given: the % may be the effect or the level left.
Sequence of Muscarinic acetylcholine receptor M3 (Cavia porcellus) (Q8VH26 1-587): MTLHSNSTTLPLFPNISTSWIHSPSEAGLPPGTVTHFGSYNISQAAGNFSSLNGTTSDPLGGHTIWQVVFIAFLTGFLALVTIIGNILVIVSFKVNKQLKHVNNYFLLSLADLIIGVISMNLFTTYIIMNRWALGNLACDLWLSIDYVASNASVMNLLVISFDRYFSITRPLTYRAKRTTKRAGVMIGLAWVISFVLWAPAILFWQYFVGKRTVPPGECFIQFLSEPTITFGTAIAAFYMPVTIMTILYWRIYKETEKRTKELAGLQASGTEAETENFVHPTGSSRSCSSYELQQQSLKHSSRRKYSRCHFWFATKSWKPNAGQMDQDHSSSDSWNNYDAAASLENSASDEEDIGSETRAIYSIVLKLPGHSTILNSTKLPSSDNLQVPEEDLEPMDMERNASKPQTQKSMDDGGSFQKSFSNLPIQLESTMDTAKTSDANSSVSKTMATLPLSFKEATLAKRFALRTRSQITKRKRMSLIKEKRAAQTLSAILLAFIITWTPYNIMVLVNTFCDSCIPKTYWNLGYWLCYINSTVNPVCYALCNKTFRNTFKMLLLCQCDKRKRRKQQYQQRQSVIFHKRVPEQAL

Sequence of Muscarinic acetylcholine receptor M3 (Homo sapiens, UniProt P20309) (P20309 whole entry): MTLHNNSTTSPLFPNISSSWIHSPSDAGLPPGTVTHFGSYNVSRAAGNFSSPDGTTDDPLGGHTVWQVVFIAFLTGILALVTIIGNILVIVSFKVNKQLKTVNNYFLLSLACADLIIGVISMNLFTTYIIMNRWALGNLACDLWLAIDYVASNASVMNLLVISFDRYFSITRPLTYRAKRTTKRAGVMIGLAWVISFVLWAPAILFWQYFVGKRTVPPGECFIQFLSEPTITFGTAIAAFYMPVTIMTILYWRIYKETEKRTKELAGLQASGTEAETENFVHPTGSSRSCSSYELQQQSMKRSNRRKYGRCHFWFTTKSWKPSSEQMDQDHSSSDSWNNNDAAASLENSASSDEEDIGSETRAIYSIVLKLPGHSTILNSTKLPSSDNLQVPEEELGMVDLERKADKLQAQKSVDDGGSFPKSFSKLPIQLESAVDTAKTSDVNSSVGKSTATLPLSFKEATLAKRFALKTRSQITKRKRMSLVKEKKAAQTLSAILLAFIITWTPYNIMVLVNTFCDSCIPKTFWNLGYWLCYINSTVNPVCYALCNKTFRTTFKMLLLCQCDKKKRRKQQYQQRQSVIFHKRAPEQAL
Sequence of Muscarinic acetylcholine receptor M3 (Cavia porcellus, UniProt Q8VH26) (Q8VH26 whole entry): as the sequence (Q8VH26 1-587) above

For the molecule `COC(C#C[C@@]1(OC)CN2CCC1CC2)(c1ccccc1)c1ccccc1`, the result in assay [1] was Active. Besides, the Ki is 158 nM in assay [2] and 10 nM in assay [3].

As for `CC(C)[N+]1(C)C2CCC1CC(OC(=O)[C@H](CO)c1ccccc1)C2` (stereo not given in full), the outcome in assay [1] was Active.

As for `CO[C@]1(C#C[C@@](O)(c2ccccc2)C2CCCCC2)CN2CCC1CC2`, in assay [1], the result was Active.

`CO[C@]1(C#C[C@@](O)(c2ccccc2)C2CCCCCC2)CN2CCC1CC2`: the outcome in assay [1] was Active. The values for the inhibitory constant (Ki) in assay [2] and in assay [3] were 20 nM and 2 nM, respectively.

As for `CO[C@]1(C#C[C@](O)(c2ccccc2)C2CCCCC2)CN2CCC1CC2`, in assay [1], the outcome was Active.

Take `CO[C@]1(C#C[C@@](O)(c2ccccc2)C2CCCCCCC2)CN2CCC1CC2`: in assay [1], the result was Active. Moreover, the Ki in assay [2] is 31.6 nM; in assay [3], 2.51 nM.

Consider `CO[C@]1(C#CC(O)(c2ccccc2)c2ccccc2)CN2CCC1CC2`, for which the result in assay [1] was Active.

As for `C[N+]1(C)[C@@H]2C[C@@H](OC(=O)C(O)(c3cccs3)c3cccs3)C[C@H]1[C@@H]1O[C@@H]12`, in assay [1], the outcome was Active.

For `CO[C@]1(C#C[C@](O)(c2ccccc2)C2CCCCCCC2)CN2CCC1CC2`, the Kb is 31.6 nM in assay [4] and 6.31 nM in assay [5]. For the same molecule, in assay [6], the Activity is 20%. The Ki in assay [2] was 3.16 nM; in assay [3], 0.316 nM.

`COC1(C#CC(C#N)(c2ccccc2)c2ccccc2)CN2CCC1CC2` (stereo not given): the outcome in assay [1] was Active. Moreover, the Ki was 6.31 nM in assay [2] and 2.51 nM in assay [3].

Regarding `COC1(C#CC(C)(c2ccccc2)c2ccccc2)CN2CCC1CC2` (stereo not given), the outcome in assay [1] was Active. The Ki was 39.8 nM in assay [2] and 15.8 nM in assay [3].

As to `CO[C@]1(C#C[C@](O)(c2ccccc2)C2CCCCCC2)CN2CCC1CC2`, the Kb in assay [4] was 5.01 nM; in assay [5], 6.31 nM. In addition, the Activity in assay [6] came out at 20%. The Ki is 2.51 nM in assay [2] and 0.316 nM in assay [3].
